# In patent US10993448B2, “Method for sanitizing fresh produce” (Dole Fresh Vegetables, Inc., priority 2014, dated 2021):
# Where “and” joins values, the source holds several entries; their conditions need not be identical. Identical values can stand only once. Like-named read-outs stand apart in the source and are kept apart here.
# How the values were obtained:
# [1] = system: Listeria monocytogenes; format: cell-based
# [2] = system: Listeria monocytogenes; assay: Suspension tests, Listeria; format: cell-based; set-up: key to Average log reduction: * indicates a sample in which no bacteria grew, so no fold reduction may be calculated; conditions: for Average log reduction: vs water control
# [3] = system: Non-selective mix; assay: Suspension tests, non-selective agar; format: cell-based, E. coli O157:H7, sv. Typhimurium, and Listeria monocytogenes; set-up: key to Average log reduction: * indicates a sample in which no bacteria grew, so no fold reduction may be calculated; conditions: for Average log reduction: vs water control
# [4] = system: background microbial load (LB load); assay: Log reduction analysis of background bacteria on inoculated Romaine lettuce; format: cell-based; conditions: after each dip, in log units, No treatment 4.81
# [5] = system: E. coli O157:H7; assay: Suspension tests, E. coli; format: cell-based; set-up: key to Average log reduction: * indicates a sample in which no bacteria grew, so no fold reduction may be calculated; conditions: for Average log reduction: vs water control
# [6] = system: Salmonella; assay: Suspension tests, Salmonella; format: cell-based, sv. Typhimurium; set-up: key to Average log reduction: * indicates a sample in which no bacteria grew, so no fold reduction may be calculated; conditions: for Average log reduction: vs water control
# [7] = system: microbial load (APC) of chopped Romaine lettuce; format: cell-based
# [8] = system: microbial load (Total Aerobic Plate Count) of raw, unwashed leafy vegetables; format: cell-based
# [9] = system: background microflora in wash water; assay: Reduction of bacteria from wash water using ozone; format: cell-based
# Description: Water containing high levels of background microflora was generated by dipping 200 g of lettuce in 2 L of water for 20 seconds. This lettuce was discarded and another 200 g of lettuce was dipped in the same water for 20 seconds. This was repeated for a total of 10 dips (referred to as Control in Table 34 below). Water with dissolved Ozone was then generated using a ClearWater Tech MSW245 Mobile Ozone Generator (San Luis Obispo, Calif.). The control microflora containing water was then mixed with this ‘Ozonated water’ at various mix levels ranging from 10 to 60% of the ozonated water with the control microflora containing water. First, 10% ozonated water was blended with 90% microflora containing water and after 20 seconds, 100 ml of water was removed into a sterile water sample bottle. This protocol was repeated in triplicate, as well as testing 20%, 30%, 40%, 50%, and 60% blends of ozonated water combined with the microflora containing water. In addition, 200 g of lettuce was added to the ozonated solution for 20 seconds and 100 ml of water was then collected in a sterile water sample bottle. This was also repeated in triplicate. The samples were serially diluted using PB as the diluent and plated on Total Plate Count agar. The plates were incubated for 48 hours at 30° C. for enumeration of the bacteria present following treatment.
# The theoretical dilution reduction in Table 34 was calculated based on the number of cells that would be present if they were diluted in water or buffer (i.e. not a solution that would cause cell death or injury).
smiles,measurement,setting,value
"[O][Cl+][O-] [ClO2 dip, chlorine dioxide]",Listeria Load (%),[1],2.87% and 4.29%
same,% bacteria killed,[2]; 30 seconds at 4° C.,100%
same,Average (bacterial load),"[2]; 30 seconds at 4° C., Water 4.96 × 10^5",0.00
same,Average log reduction,[2]; 30 seconds at 4° C.,*
same,% bacteria killed,[2]; 30 seconds at 15° C.,100%
same,Average (bacterial load),"[2]; 30 seconds at 15° C., Water 2.24 × 10^6",0.00
same,Average log reduction,[2]; 30 seconds at 15° C.,*
same,% bacteria killed,[2]; 30 seconds at 40° C.,99.9999%
same,Average (bacterial load),"[2]; 30 seconds at 40° C., Water 2.32 × 10^6",2.00 × 10^0
same,Average log reduction,[2]; 30 seconds at 40° C.,6.06
same,% bacteria killed,[2]; 90 seconds at 4° C.,100%
same,Average (bacterial load),"[2]; 90 seconds at 4° C., Water 2.06 × 10^5",0.00
same,Average log reduction,[2]; 90 seconds at 4° C.,*
same,% bacteria killed,[2]; 90 seconds at 15° C.,100%
same,Average (bacterial load),"[2]; 90 seconds at 15° C., Water 7.14 × 10^4",0.00
same,Average log reduction,[2]; 90 seconds at 15° C.,*
same,% bacteria killed,[2]; 90 seconds at 40° C.,96.080%
same,Average (bacterial load),"[2]; 90 seconds at 40° C., Water 2.50 × 10^6",9.80 × 10^4
same,Average log reduction,[2]; 90 seconds at 40° C.,1.41
same,% bacteria killed,[3],100.000%
same,Average (bacterial load),"[3]; 30 seconds at 4° C., Water 1.00 × 10^7",0.00
same,% bacteria killed,"[3]; 30 seconds at 4° C., listed as 10 ppm chlorine dioxide",100%
same,% bacteria killed,"[3]; 30 seconds at 4° C., listed as Chlorine dioxide (10 ppm)",100%
same,Average log reduction,[3]; 30 seconds at 4° C.,*
same,Average (bacterial load),"[3]; 30 seconds at 15° C., Water 8.46 × 10^6",0.00
same,% bacteria killed,"[3]; 30 seconds at 15° C., listed as 10 ppm chlorine dioxide",100%
same,% bacteria killed,"[3]; 30 seconds at 15° C., listed as Chlorine dioxide (10 ppm)",100%
same,Average log reduction,[3]; 30 seconds at 15° C.,*
same,Average (bacterial load),"[3]; 30 seconds at 40° C., Water 8.30 × 10^6",1.00 × 10^2
same,% bacteria killed,"[3]; 30 seconds at 40° C., listed as 10 ppm chlorine dioxide",99.9988%
same,% bacteria killed,"[3]; 30 seconds at 40° C., listed as Chlorine dioxide (10 ppm)",99.9988%
same,Average log reduction,[3]; 30 seconds at 40° C.,4.92
same,Average (bacterial load),"[3]; 90 seconds at 4° C., Water 6.22 × 10^6",2.00 × 10^0
same,% bacteria killed,"[3]; 90 seconds at 4° C., listed as 10 ppm chlorine dioxide",100%
same,% bacteria killed,"[3]; 90 seconds at 4° C., listed as Chlorine dioxide (10 ppm)",100%
same,Average log reduction,[3]; 90 seconds at 4° C.,6.49
same,Average (bacterial load),"[3]; 90 seconds at 15° C., Water 1.21 × 10^7",2.00 × 10^1
same,% bacteria killed,"[3]; 90 seconds at 15° C., listed as 10 ppm chlorine dioxide",99.9998%
same,% bacteria killed,"[3]; 90 seconds at 15° C., listed as Chlorine dioxide (10 ppm)",99.9998%
same,Average log reduction,[3]; 90 seconds at 15° C.,5.78
same,Average (bacterial load),"[3]; 90 seconds at 40° C., Water 9.76 × 10^6",7.20 × 10^4
same,% bacteria killed,"[3]; 90 seconds at 40° C., listed as 10 ppm chlorine dioxide",99.2623%
same,% bacteria killed,"[3]; 90 seconds at 40° C., listed as Chlorine dioxide (10 ppm)",99.2623%
same,Average log reduction,[3]; 90 seconds at 40° C.,2.13
same,Avg. Bacterial Load,"[4]; Treatment 1 (ClO2, Cl2, PAA)",1.56
same,Avg. Bacterial Load,"[4]; Treatment 2 (ClO2, PAA, Cl2)",2.41
same,% bacteria killed,[5]; 30 seconds at 4° C.,100%
same,Average (bacterial load),"[5]; 30 seconds at 4° C., Water 5.72 × 10^6",0.00
same,Average log reduction,[5]; 30 seconds at 4° C.,*
same,% bacteria killed,[5]; 30 seconds at 15° C.,100%
same,Average (bacterial load),"[5]; 30 seconds at 15° C., Water 5.96 × 10^6",0.00
same,Average log reduction,[5]; 30 seconds at 15° C.,*
same,% bacteria killed,[5]; 30 seconds at 40° C.,99.9993%
same,Average (bacterial load),"[5]; 30 seconds at 40° C., Water 3.22 × 10^6",2.20 × 10^1
same,Average log reduction,[5]; 30 seconds at 40° C.,5.17
same,% bacteria killed,[5]; 90 seconds at 4° C.,100%
same,Average (bacterial load),"[5]; 90 seconds at 4° C., Water 3.96 × 10^6",0.00
same,Average log reduction,[5]; 90 seconds at 4° C.,*
same,% bacteria killed,[5]; 90 seconds at 15° C.,100%
same,Average (bacterial load),"[5]; 90 seconds at 15° C., Water 5.74 × 10^6",0.00
same,Average log reduction,[5]; 90 seconds at 15° C.,*
same,% bacteria killed,[5]; 90 seconds at 40° C.,99.1083%
same,Average (bacterial load),"[5]; 90 seconds at 40° C., Water 3.14 × 10^6",2.80 × 10^4
same,Average log reduction,[5]; 90 seconds at 40° C.,2.05
same,% bacteria killed,[6]; 30 seconds at 4° C.,100%
same,Average (bacterial load),"[6]; 30 seconds at 4° C., Water 5.32 × 10^6",0.00
same,Average log reduction,[6]; 30 seconds at 4° C.,*
same,% bacteria killed,[6]; 30 seconds at 15° C.,100%
same,Average (bacterial load),"[6]; 30 seconds at 15° C., Water 2.70 × 10^6",0.00
same,Average log reduction,[6]; 30 seconds at 15° C.,*
same,% bacteria killed,[6]; 30 seconds at 40° C.,99.9995%
same,Average (bacterial load),"[6]; 30 seconds at 40° C., Water 4.36 × 10^6",2.20 × 10^1
same,Average log reduction,[6]; 30 seconds at 40° C.,5.30
same,% bacteria killed,[6]; 90 seconds at 4° C.,100%
same,Average (bacterial load),"[6]; 90 seconds at 4° C., Water 1.57 × 10^6",0.00
same,Average log reduction,[6]; 90 seconds at 4° C.,*
same,% bacteria killed,[6]; 90 seconds at 15° C.,100%
same,Average (bacterial load),"[6]; 90 seconds at 15° C., Water 4.54 × 10^6",0.00
same,Average log reduction,[6]; 90 seconds at 15° C.,*
same,% bacteria killed,[6]; 90 seconds at 40° C.,99.4879%
same,Average (bacterial load),"[6]; 90 seconds at 40° C., Water 7.42 × 10^6",3.80 × 10^4
same,Average log reduction,[6]; 90 seconds at 40° C.,2.29
"CC(=O)OO [PAA, peroxyacetic acid]",log unit reduction in microbial load after each individual step,[7],2.4 log unit
"OO [Treatment H2O2, hydrogen peroxide]",APC (CFU/g),[8],"5,800 CFU/g"
"O=[O+][O-] [ozone solution, ozone]",Avg. CFU/ml,"[9]; lettuce 20 sec in ozone solution, initial ozone 2.2 ppm, 20 sec in water 19266",6900 CFU/ml
same,Avg. CFU/ml,"[9]; ozone solution (initial 1.8 ppm) mixed with microflora containing water, Control after 10 dips in water 300000, listed as 10% ozone solution, After mixing 10% ozone solution",300000 CFU/ml
same,Avg. CFU/ml,"[9]; ozone solution (initial 1.8 ppm) mixed with microflora containing water, Control after 10 dips in water 300000, listed as 20% ozone solution, After mixing 20% ozone solution",185333 CFU/ml
same,Avg. CFU/ml,"[9]; ozone solution (initial 1.8 ppm) mixed with microflora containing water, Control after 10 dips in water 300000, listed as 30% ozone solution, After mixing 30% ozone solution",174667 CFU/ml
same,Avg. CFU/ml,"[9]; ozone solution (initial 1.8 ppm) mixed with microflora containing water, Control after 10 dips in water 300000, listed as 40% ozone solution, After mixing 40% ozone solution",121667 CFU/ml
same,Avg. CFU/ml,"[9]; ozone solution (initial 1.8 ppm) mixed with microflora containing water, Control after 10 dips in water 300000, listed as 50% ozone solution, After mixing 50% ozone solution",87667 CFU/ml
same,Avg. CFU/ml,"[9]; ozone solution (initial 1.8 ppm) mixed with microflora containing water, Control after 10 dips in water 300000, listed as 60% ozone solution, After mixing 60% ozone solution",70333 CFU/ml
